The source of these data is publication PMC6466596, “New Chloramphenicol Derivatives from the Viewpoint of Anticancer and Antimicrobial Activity” (Antibiotics, 2019).

Read-outs that look alike come from different tables or passages of the source.

One data set has as its system E. coli 70S ribosome. Kind of data set: Competition with [14C]-chloramphenicol for binding to the ribosome (filter binding). Particulars: calculated from IC50 by Cheng–Prusoff; [14C]-CAM constant at 10 μM; read-out: Ki (binding affinity constant). Here is the method: Reassociated 70S ribosomes were prepared from E. coli K12 cells as described previously. 70S ribosomes were incubated in buffer A (100 mM Tris-HCl pH 7.2, 100 mM ammonium acetate, 10 mM magnesium acetate, 6 mM β-mercaptoethanol) with 10 μΜ [^14C]-chloramphenicol (150 dpm/pmol) at a final concentration of 0.20 μM [23]. After incubation for 10 min at 37 °C, the mixture was diluted with 3 mL of cold buffer A and filtered through a 25-mm diameter cellulose nitrate membrane filter (Millipore 0.45 μm pore size). The filter was washed three times with 3 mL of cold buffer A and the radioactivity which remained bound on the filter was measured. The binding of [^14C]-chloramphenicol was studied in competition with CAM or PA–CAM conjugates by keeping the concentration of [^14C]-CAM constant (10 μM) and increasing the concentration of non-radioactive conjugates.
To clarify whether the new PA–CAM conjugates maintain their binding site on the 70S bacterial ribosome, we carried out competition experiments. […] The affinity constants, Ki, were calculated using the following Cheng–Prusoff relationship (1) and their values are presented in Table 3. According to the values of Table 3, the decrease of the affinity for 70S ribosome follows the order 3>7>4>6>CAM>5. (1) Ki=IC50/1+[I]/KD where [I] is the concentration of [^14C]-CAM (constant at 10 μM) and KD is the dissociation constant of ribosome–chloramphenicol complex formation.

For the next data set, the system named is Escherichia coli ΔTolC. Description: In vivo antibacterial activity (growth inhibition in LB culture, OD560). To be noted: read-out: EC50 Escherichia coli ΔTolC. The format is cell-based. Here is the method:
(§1) The in vivo antibacterial activity of the conjugates was determined using the following three bacterial strains: wild-type Escherichia coli K12 (E. coli K12), Escherichia coli ΔTolC mutant strain (E. coli ΔTolC) lacking the TolC protein, which is involved in the efflux pumps operation, and wild-type Staphylococcus aureus (S. aureus). The anti-tumor activity of the conjugates was assessed using the human ZL34 and MeT5A cell lines, which were kindly offered by Professor G. Stathopoulos (University of Patras). ZL34 are cancer cells, derived from malignant pleural mesothelioma, while MeT5A are immortalized cells, which originate from healthy mesothelial tissue.
(§2) For the experimental procedures, the bacteria were cultured in luria broth (LB) medium (tryptone 10 g/L, yeast extract 5 g/L, NaCl 10 g/L) as previously described. The bacteria cultures were grown in the presence of CAM or each conjugate at increasing concentration (1–100 μM). The cultures were incubated at 37 °C until the absorbance (OD560) of the reference culture in the absence of antibiotic reached the value of 0.7. At this point, the growth of the cultures was terminated by placing them in an ice bath, and the measurement of the optical density followed. These measurements were used to calculate the half-maximal effective concentration (EC50) values.

Another data set deals with Escherichia coli K12. The description is as above. It counts as cell-based. Particulars: K12, read-out: EC50 Escherichia coli K12. As for the experimental part: as §1, §2
Another data set deals with Staphylococcus aureus. The data set is described as above. Particulars: read-out: EC50 Staphylococcus aureus. It counts as cell-based. Here is the method:
as §1, §2

Data set [1] relates to mitochondrial cytochrome c oxidase subunit II (COX2) in ZL34 cells. Description: Immunoblotting of COX2 (mitochondrial protein synthesis). The format is cell-based, human. To be noted: 60 μΜ, 48 h; normalized to actin; result in words. Here is the method: (§3) Cell lysates were prepared after treatment with 60 μΜ of conjugates for 48 h. Total cellular proteins were isolated at 4 °C using RIPA buffer (ABCAM) and mixed with 4% SDS-containing loading buffer. Protein concentrations were determined using Bradford assay. Lysates ([…]) were reduced in Laemmli buffer containing 1 mM dithiothreitol, resolved by 10% SDS-PAGE and electrotransfered to Immobilon-P PVDF membranes (Millipore, Massachusetts, USA) according to standard procedures. Blots were incubated at 4 °C overnight with rabbit monoclonal antibody against mitochondrial cytochrome c oxidase subunit II (COX2) (anti-mtCO2 antibody, ABCAM) at a 1:1000 dilution in blocking buffer. After washing with TBS-Tween and incubation with secondary antibody coupled to horse radish peroxidase, protein bands were visualized with ECL^TM chemiluminescence reagent (Amersham) and detected by autoradiography. The intensity of bands was quantified by Image Analysis, using the Image-Pro Plus 7 software (Media Cybernetics). Blots were re-probed with a mouse anti-actin antibody (Santa Cruz Biotechnology) to verify equal protein loading.
Background: In western blotting, separated proteins are transferred to a membrane and probed.

Data set [2] has as its system mitochondrial cytochrome c oxidase subunit II (COX2) in Met5A cells. Described as above. It counts as cell-based, human. To be noted: 60 μΜ, 48 h; compared to ZL34; result in words. Here is the method:
as §3

In the next data set the test system is Met5A cells. Kind of data set: Quantification of intracellular levels of conjugates and polyamines by RP-HPLC-DAD. It counts as cell-based, human. To be noted: Met5A cells treated with 60 μΜ of compound; for Intracellular compound concentration: mean ± SD, three repetitions. Here is the method:
(§4) PAs and conjugates 3 and 4 in ZL34 and Met5A cells were determined by reverse phase high-performance liquid chromatography (RP-HPLC-DAD), as described previously. Briefly, 100 mg cells (wet weight), either ZL34 or Met5A, which were grown in the presence of 60 μΜ of conjugates, were washed and then homogenized in 0.6 M HClO4. Cultures grown in the absence of the conjugates were used as reference. In the isolates, hexamethylenediamine dihydrochloride was added as an internal standard, followed by dansylation and subsequent extraction by toluene. The extracts were dried, reconstituted in acetonitrile/10 mM phosphate buffer pH 4.4 (45:55 v/v) and filtered through a 0.2-μm membrane (Spartan 13/0.2 RC Whatman GmbH, Dassel, Germany) prior to HPLC analysis. The HPLC system included a Varian Star 9010 solvent delivery system with a 250 × 4.6 mm Luna 5 μm C18(2) 100 A column (Phenomenex Co., USA) and a photodiode array detector (Shimadzu SPDM20A).
(§5) The flow rate was set at 1.0 mL/min. Polyamines were quantified at 258 nm and the conjugates at 275 nm. The detection limits for PUT, SPD, and SPM were 52 pmol, 18 pmol, and 36 pmol at 258 nm, respectively. The detection limits for compounds 3 and 4 were 25 pmol and 30 pmol at 275 nm, respectively. All experiments were run in triplicate. The coefficients of variation (C.V.) of the intra-assays were 5–7%, while those of the inter-assays ranged from 13 to 17%. LC Solution Software (Shimadzu) was used for data processing and the results were expressed as nmol/mg protein.

For a further data set, the system named is ZL34 cells. The description is as above. It counts as cell-based, human. To be noted: ZL34 cells treated with 60 μΜ of compound; for Intracellular compound concentration: mean ± SD, three repetitions. As for the experimental part: as §4, §5
In the next data set the test system is ZL34 mesothelioma cells. It counts as cell-based, human. As for the experimental part:
as §1
(§6) The antitumor activity of the conjugates was assessed using the human ZL34 and MeT5A cell lines as previously described. ZL34 and Met5A cells were plated in sterile 6-well microtiter plates and grown in Dulbecco’s modified Eagle’s medium (DMEM), supplemented with 10% heat-inactivated fetal bovine serum and 1% penicillin/streptomycin. Cultures were maintained in a humidified atmosphere with 5% CO2 at 37 °C. Compounds 3 and 4 were added at final concentrations of 30 and 60 μΜ, and then cells were grown for 24, 72 and 96 h. In parallel, solutions of conjugates combined with a ten-fold concentration of SPD were incubated under the same conditions. After treatment, the drug was removed by washing the cells twice with phosphate-buffered saline (PBS). The cells were then trypsinized (0.5 mL trypsin-EDTA×1 solution/well, 5 min at 37 °C), mixed with 1 mL DMEM and collected by centrifugation at 3000 × g for 5 min. Cell viabilities were determined by the trypan blue exclusion assay, using a TC10 automated cell counter (BIORAD). Viable cells were expressed as a percentage of total cells.

Data set [3] deals with Met5A mesothelial immortalized cells. It counts as cell-based, human. Here is the method:
as §1, §6

The mark [4] stands for this setting: wild-type strain, mean ± SD, three independent experiments.

Usually Ki stands for the equilibrium dissociation constant of an inhibitor or competing ligand from its target. By EC50 is commonly meant the concentration needed to bring the measured effect to its halfway point. Turning to `O=C(N[C@H](CO)[C@H](O)c1ccc([N+](=O)[O-])cc1)C(Cl)Cl` [CAM, Chloramphenicol], in the data set with E. coli 70S ribosome, the inhibition constant (Ki) was 1.5 ± 0.1 µM. Besides, the EC50 with Escherichia coli ΔTolC turned out to be 2.3 ± 0.6 µM; with Escherichia coli K12, 6.2 ± 0.5 µM; in the data set on Staphylococcus aureus, 3.4 ± 0.3 µM.
In the case of `NCCCN(CCCCN(Cc1ccccc1)Cc1ccccc1)C(=O)CCC(=O)N[C@H](CO)[C@H](O)c1ccc([N+](=O)[O-])cc1` [Compound 3], the Ki in the data set on E. coli 70S ribosome was 0.8 ± 0.1 µM. Besides, the “COX2 expression in tumor cells (ZL34)” value in data set [1] is “significant decrease”. Besides, the “COX2 levels in Met5A cells” value in data set [2] is recorded as “affected to a lesser extent”. Also, the PUT intracellular level was found to be 7.38 ± 1.93 nmol/mg Protein in the data set on Met5A cells and 1.58 ± 0.13 nmol/mg Protein in the data set with ZL34 cells. Also, the SPD intracellular level is recorded as 7.38 ± 1.85 nmol/mg Protein in the data set on Met5A cells and 4.18 ± 1.87 ^1 nmol/mg Protein in the data set with ZL34 cells. Moreover, the SPM intracellular level with Met5A cells was 22.50 ± 3.11 nmol/mg Protein; in the data set on ZL34 cells it was 2.71 ± 1.17 ^2 nmol/mg Protein. Moreover, the Intracellular compound concentration with Met5A cells was found to be 3.75 ± 0.60 μΜ; in the data set on ZL34 cells, 5.96 ± 0.92 μΜ. In addition, the results for the EC50 with Escherichia coli ΔTolC, in the data set on Escherichia coli K12 and in the data set with Staphylococcus aureus (setting [4]) were 8.9 ± 0.7 µM, 11 ± 0.9 µM and 6.8 ± 0.5 µM, respectively.
For the compound `O=C(CCC(=O)N(CCCCN(Cc1ccccc1)Cc1ccccc1)CCCN(Cc1ccccc1)Cc1ccccc1)N[C@H](CO)[C@H](O)c1ccc([N+](=O)[O-])cc1` [Compound 4], the Ki with E. coli 70S ribosome is 1.1 ± 0.1 µM. Further, in [1], the “COX2 expression in tumor cells (ZL34)” value was “significant decrease”. The “COX2 levels in Met5A cells” value in data set [2] is “affected to a lesser extent”. In addition, in the data set on Met5A cells, the PUT intracellular level was 5.60 ± 1.10 nmol/mg Protein, the SPD intracellular level is reported as 8.14 ± 2.16 nmol/mg Protein, the SPM intracellular level is on record as 25.80 ± 6.57 nmol/mg Protein and the Intracellular compound concentration amounted to 7.40 ± 0.80 μΜ. In the data set with ZL34 cells, the PUT intracellular level came out at 2.07 ± 0.91 nmol/mg Protein, the SPD intracellular level was 5.36 ± 2.15 ^1 nmol/mg Protein, the SPM intracellular level is listed as 3.17 ± 1.70 ^2 nmol/mg Protein and the Intracellular compound concentration is listed as 29.00 ± 2.53 μΜ. For the same compound, the EC50 in the data set on Escherichia coli ΔTolC was above 200 µM. The EC50 in the data set with Escherichia coli K12 is above 200 µM. Moreover, in the data set on Staphylococcus aureus (setting [4]), the EC50 is above 200 µM. In addition, the “Cytotoxicity / antiproliferative activity on ZL34 cancer cells” value in the data set with ZL34 mesothelioma cells is “demonstrated cytotoxicity”. For the same compound, in data set [3], the “Cytotoxicity on immortalized Met5A cells” value is reported as “milder action”.
As for `O=C(CCC(=O)N[C@H](CO)[C@H](O)c1ccc([N+](=O)[O-])cc1)NCCCCN(Cc1ccccc1)Cc1ccccc1` [Compound 5], the Ki in the data set on E. coli 70S ribosome was 2.6 ± 0.3 µM. Moreover, the half-maximal effective concentration (EC50) with Escherichia coli ΔTolC, in the data set on Escherichia coli K12 and in the data set on Staphylococcus aureus (setting [4]) was above 200 µM throughout. In addition, the “Cytotoxicity / antiproliferative activity on ZL34 cancer cells” value in the data set on ZL34 mesothelioma cells is recorded as “did not show any important antiproliferative activity”.
Consider `O=C(CCC(=O)N[C@H](CO)[C@H](O)c1ccc([N+](=O)[O-])cc1)NCCCCCCN(Cc1ccccc1)Cc1ccccc1` [Compound 6], for which the inhibition constant Ki in the data set on E. coli 70S ribosome is 1.3 ± 0.2 µM. The EC50 with Escherichia coli ΔTolC, in the data set with Escherichia coli K12 and in the data set with Staphylococcus aureus (setting [4]) was above 200 µM in each case. Besides, the “Cytotoxicity / antiproliferative activity on ZL34 cancer cells” value in the data set on ZL34 mesothelioma cells is listed as “did not show any important antiproliferative activity”.
Consider `O=C(CCC(=O)N[C@H](CO)[C@H](O)c1ccc([N+](=O)[O-])cc1)NCCCN(Cc1ccccc1)Cc1ccccc1` [Compound 7], for which the Ki in the data set on E. coli 70S ribosome is 1 ± 0.1 µM. The EC50 in the data set on Escherichia coli ΔTolC, in the data set with Escherichia coli K12 and with Staphylococcus aureus (setting [4]) was above 200 µM throughout. The “Cytotoxicity / antiproliferative activity on ZL34 cancer cells” value in the data set on ZL34 mesothelioma cells is “did not show any important antiproliferative activity”.
